The values that follow come from PMC3508077 (Bioorganic & medicinal chemistry, 2012).

The term IC50 denotes the point on the concentration scale where inhibition reaches its midpoint.

The test system of experiment [1] is NAD(P)H:quinone reductase 1 (QR1). The note with it: for QR1 induction activity in the mutant cell lines (in words): Taoc1BP^rc1 and BP^rc1 mutant cell lines; for Inducer class (monofunctional / bifunctional): from QR1 induction in Taoc1BP^rc1 and BP^rc1 mutants.
Experiment [2] deals with NF-κB.
Experiment [3] concerns inducible nitric oxide synthase (iNOS).
The subject of experiment [4] is NAD(P)H:quinone reductase 1 (QR1). Briefly: cells. Conditions: Mus musculus, 48 h, read-out: CD (concentration that doubles the activity).
The test system is the same in experiment [5]. Conditions: cited from earlier work.
Experiment [6] has the same test system. Briefly: QR1 induction assay in Hepa 1c1c7 murine hepatoma cells. The class given is cell-based. Conditions: Hepa 1c1c7 cells.
Experiment [7] concerns the target T1, human aromatase (CYP19 enzyme) (Homo sapiens, UniProt P11511).
T1 sequence (P11511 1-503): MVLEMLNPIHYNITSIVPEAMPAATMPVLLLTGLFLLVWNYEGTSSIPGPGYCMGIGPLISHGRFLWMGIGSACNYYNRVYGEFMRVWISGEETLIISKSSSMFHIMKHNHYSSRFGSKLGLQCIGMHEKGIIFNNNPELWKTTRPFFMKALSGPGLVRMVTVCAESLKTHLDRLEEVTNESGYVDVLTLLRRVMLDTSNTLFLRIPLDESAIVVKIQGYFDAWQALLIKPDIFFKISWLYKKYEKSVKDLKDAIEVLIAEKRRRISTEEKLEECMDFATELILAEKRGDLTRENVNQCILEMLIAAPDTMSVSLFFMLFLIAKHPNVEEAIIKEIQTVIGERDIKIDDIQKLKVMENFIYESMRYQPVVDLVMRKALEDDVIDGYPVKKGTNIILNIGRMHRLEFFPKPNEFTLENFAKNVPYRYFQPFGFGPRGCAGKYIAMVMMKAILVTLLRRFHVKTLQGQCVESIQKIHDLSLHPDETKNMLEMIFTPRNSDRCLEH
Conditions: read-out: Aromatase IC50.

For experiment [8], the target named is T1, human aromatase (CYP19 enzyme). The note with it: cited from earlier work.
The subject of experiment [9] is NF-κB. Conditions: cited from earlier work.

Structures are written as SMILES.

In the case of `COc1cccc(-c2csc(-c3ccccc3)n2)c1` [Compound 9n, 4-(3-Methoxyphenyl)-2-phenylthiazole], in [1], the “QR1 induction activity in the mutant cell lines (in words)” value was “not active”. Besides, in [2], the “NF-κB inhibitory activity (in words)” value is given as “weak”. Also, the “Inhibitory activity vs. iNOS (in words)” value in experiment [3] is “weak”.

For the compound `COc1cccc(-c2noc(-c3cccc(OC)c3)n2)c1` [Compound 15], the EC (2-fold QR1 activity) in experiment [4] is more than 50 µM.

`COc1cccc(-c2csc(-c3ccc(C)cc3Br)n2)c1` [Compound 9t, 2-(2-Bromo-4-methylphenyl)-4-(3-methoxyphenyl)thiazole]: in experiment [4], the EC (2-fold QR1 activity) was more than 50 µM. Take `COc1cccc(-c2csc(-c3cc(Cl)ccc3C)n2)c1` [Compound 9u, 2-(5-Chloro-2-methylphenyl)-4-(3-methoxyphenyl)thiazole]: the “Inducer class (monofunctional / bifunctional)” value in experiment [1] is given as “monofunctional”.

Consider `Fc1ccccc1-c1nsc(-c2ccccc2F)n1` [Compound 3, 3,5-bis(2-fluorophenyl)-1,2,4-thiadiazole], for which, in experiment [5], the “CD (concentration that doubles QR1 activity)” value is 1.8 µM and the “IR (QR1 induction ratio)” value is 10.5. In addition, in experiment [4], the EC (2-fold QR1 activity) was determined as 29.4 ± 1.3 µM. `Cc1c(Cl)cccc1-c1nc(-c2ccccc2)cs1` [Compound 9f, 2-(3-Chloro-2-methylphenyl)-4-phenylthiazole]: in experiment [4], the EC (2-fold QR1 activity) is more than 50 µM. For `FC(F)(F)c1ccccc1-c1nc(-c2ccccc2)cs1` [Compound 9a, 4-Phenyl-2-[2-(trifluoromethyl)phenyl]thiazole], the “QR1 induction activity (in words)” value in [6] is “inactive”. Also, in experiment [4], the EC (2-fold QR1 activity) was more than 50 µM. `COc1cccc(-c2csc(-c3cccc(OC)c3F)n2)c1` [Compound 13a, 2-(2-Fluoro-3-methoxyphenyl)-4-(3-methoxyphenyl)thiazole]: the “QR1 induction activity (in words)” value in [6] is “inactive”. In experiment [4], the EC (2-fold QR1 activity) was more than 50 µM. `Cc1ccc(-c2nc(-c3ccccc3)cs2)c(Br)c1` [Compound 9l, 2-(2-Bromo-4-methylphenyl)-4-phenylthiazole]: in [4], the EC (2-fold QR1 activity) was more than 50 µM. Still for that read-out and setting: with `COc1cccc(-c2nsc(-c3cccc(OC)c3)n2)c1` [Compound 16] the figure was more than 50 µM; with `CCCCc1ccc(-c2nc(-c3cccc(OC)c3)cs2)cc1` [Compound 9v, 2-(4-n-Butylphenyl)-4-(3-methoxyphenyl)thiazole], more than 50 µM. On to `Cc1ccc(Cl)cc1-c1nc(-c2ccccc2)cs1` [Compound 9h, 2-(5-Chloro-2-methylphenyl)-4-phenylthiazole], for which the “Inducer class (monofunctional / bifunctional)” value in experiment [1] was “monofunctional”. On to `Clc1cccc(Cl)c1-c1nc(-c2ccccc2)cs1` [Compound 9i, 2-(2,6-Dichlorophenyl)-4-phenylthiazole], for which the EC (2-fold QR1 activity) in [4] is more than 50 µM. On the same count and under the same terms, the same measure for `CCCCc1ccc(-c2nc(-c3ccccc3)cs2)cc1` [Compound 9m, 2-(4-n-Butylphenyl)-4-phenylthiazole]: more than 50 µM; for `COc1cccc(-c2csc(-c3cccc(Br)c3)n2)c1` [Compound 9w, 2-(3-Bromophenyl)-4-(3-methoxyphenyl)thiazole]: more than 50 µM. For `COc1cccc(-c2csc(-c3cccc(Cl)c3C)n2)c1` [Compound 9p, 2-(3-Chloro-2-methylphenyl)-4-(3-methoxyphenyl)thiazole], the EC (2-fold QR1 activity) in [4] is more than 50 µM.

For the compound `COc1cccc(-c2csc(-c3cccc(OC)c3)n2)c1` [Compound 9o], the “CD value compared with that of resveratrol (times better)” value in [6] is 241 times. The “QR1 induction activity in the mutant cell lines (in words)” value in experiment [1] is recorded as “not active”. In experiment [2], the “NF-κB inhibitory activity (in words)” value was “weak”. With `Fc1ccccc1-c1nsc(-c2ccccc2)n1` [Compound 6b, 3-(2-Fluorophenyl)-5-phenyl-1,2,4-thiadiazole], the EC (2-fold QR1 activity) in [4] is more than 50 µM.

As to `COc1cccc(-c2csc(-c3cccc(Cl)c3Cl)n2)c1` [Compound 9q, 2-(2,3-Dichlorophenyl)-4-(3-methoxyphenyl)thiazole], in [1], the “QR1 induction activity in the mutant cell lines (in words)” value is listed as “did not display activity”. In addition, the EC (2-fold QR1 activity) in experiment [4] is more than 50 µM. For the compound `COc1cccc(-c2csc(-c3cccc(F)c3F)n2)c1` [Compound 9r, 2-(2,3-Difluorophenyl)-4-(3-methoxyphenyl)thiazole], in experiment [4], the EC (2-fold QR1 activity) was more than 50 µM. Consider `Clc1ccc(Cl)c(-c2nc(-c3ccccc3)cs2)c1` [Compound 9g, 2-(2,5-Dichlorophenyl)-4-phenylthiazole], for which the “QR1 induction activity in the mutant cell lines (in words)” value in experiment [1] was “active”. As to `COc1cccc(-c2nc(-c3ccccc3)cs2)c1` [Compound 9e, 2-(3-Methoxyphenyl)-4-phenylthiazole], the “QR1 induction activity in the mutant cell lines (in words)” value in experiment [1] was “not active”. The “NF-κB inhibitory activity (in words)” value in experiment [2] is reported as “low micromolar”. Further, the “Inhibitory activity vs. iNOS (in words)” value in [3] was “weak”. Also, in [4], the EC (2-fold QR1 activity) was more than 50 µM. `O=c1cc(-c2ccc(Br)cc2)oc2ccccc12` [4′-Bromoflavone, reference compound]: in experiment [1], the “Inducer class (monofunctional / bifunctional)” value is given as “bifunctional”. For the compound `COc1cccc(-c2csc(-c3cc(OC)ccc3F)n2)c1` [Compound 13b, 2-(2-Fluoro-5-methoxyphenyl)-4-(3-methoxyphenyl)thiazole], the “QR1 induction activity (in words)” value in experiment [6] was “inactive”. Moreover, the EC (2-fold QR1 activity) in experiment [4] is more than 50 µM. On to `c1ccc(-c2nsc(-c3ccccc3)n2)cc1` [Compound 2, 3,5-Diphenyl-1,2,4-thiadiazole], for which, in experiment [7], the IC50 worked out at 32.7 ± 3.8 µM. In addition, in experiment [5], the “CD value compared with resveratrol (times lower)” value is on record as 10 times. In [4], the EC (2-fold QR1 activity) is more than 50 µM. Also, in experiment [8], the “Activity as an aromatase inhibitor (in words)” value is “weak”. Moreover, the “Activity as an inhibitor of NF-κB (in words)” value in experiment [9] is recorded as “weak”. `Brc1cccc(-c2nc(-c3ccccc3)cs2)c1` [Compound 9d, 2-(3-Bromophenyl)-4-phenylthiazole]: the EC (2-fold QR1 activity) in experiment [4] is more than 50 µM. On to `Cc1cc(Cl)ccc1-c1nc(-c2ccccc2)cs1` [Compound 9j, 2-(4-Chloro-2-methylphenyl)-4-phenylthiazole], for which the “Inducer class (monofunctional / bifunctional)” value in experiment [1] is listed as “monofunctional”.

`Clc1cccc(-c2nc(-c3ccccc3)cs2)c1Cl` [Compound 9c, 2-(2,3-Dichlorophenyl)-4-phenylthiazole]: the “QR1 induction activity in the mutant cell lines (in words)” value in experiment [1] is “active”.
